Laboratory results as given in patent US11180462B2, “Microbiocidal oxadiazole derivatives” (SYNGENTA PARTICIPATIONS AG, priority 2015, dated 2021).

How the values were obtained:
Phakopsora Pachyrhizi = experiment: Fungicidal activity against Phakopsora pachyrhizi / soybean / leaf disc preventative (Asian soybean rust); type: in vivo; conditions: foliar, 200 ppm in the applied formulation, soybean leaf disks, compared to untreated control leaf disks, read-out: disease control
Method in brief: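 Preventative soybean leaf-disc test: discs on water agar sprayed with diluted formulated compound, inoculated one day later with spores on the lower surface. Held 24–36 h dark at 20°C, 75% rh, then 12 h light/day; percent disease control versus untreated discs scored 12–14 days after application.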

[1] = tested on: Puccinia recondita f. Sp. Tritici; experiment: Fungicidal activity against Puccinia recondita f. sp. tritici / wheat / leaf disc curative (brown rust); type: in vivo; conditions: foliar, 24 h, 200 ppm in the applied formulation, wheat leaf segments, curative (applied 1 day after inoculation), compared to untreated control leaf disks, read-out: disease control
Method in brief: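 % disease control vs untreated, scored 6–8 d post-application. Wheat cv. Kanzler segments, spore-inoculated, dark 19° C/75% RH; formulated cpd applied 1 d post-inoc; then 19° C, 75% RH, 12 h L/12 h D.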

[2] = tested on: Puccinia recondita f. Sp. Tritici; experiment: Fungicidal activity against Puccinia recondita f. sp. tritici / wheat / leaf disc preventative (brown rust); type: in vivo; conditions: foliar, 200 ppm in the applied formulation, wheat leaf segments, preventative, compared to untreated control leaf disks, read-out: disease control
Method in brief: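 Compound application precedes infection: segments of wheat cv. Kanzler, sprayed at 200 ppm, are inoculated with a spore suspension after 1 day. Incubation is at 19° C. with 75% relative humidity and 12 h light/12 h darkness, and control versus untreated leaves is rated 7 to 9 days post-application.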

[3] = tested on: Glomerella lagenarium (Colletotrichum lagenarium); experiment: Fungicidal activity against Glomerella lagenarium (Colletotrichum lagenarium) liquid culture / cucumber / preventative (anthracnose); type: cell-based; conditions: Colletotrichum orbiculare; 20 ppm in the applied formulation; liquid culture (PDB), growth inhibition measured photometrically after 3 to 4 days; compared to untreated control; read-out: disease control
Method in brief: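 Photometric read-out of fungal growth after 2–7 days, expressed as percent antifungal activity versus untreated check. Cryo-stored conidia in PDB; compound at 20 ppm; dark, 24 °C, 96% RH.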

CCN(Cc1ccc(-c2noc(C(F)(F)F)n2)cc1)C(=O)C1CCCO1 (stereo not shown) [Compound 1.509, N-ethyl-N-[[4-[5-(trifluoromethyl)-1,2,4-oxadiazol-3-yl]phenyl]methyl]-tetrahydrofuran-2-carboxamide]
≥ 80%: pest or weed control at 200 ppm (Phakopsora Pachyrhizi) | pest or weed control at 200 ppm [1] | pest or weed control at 200 ppm [2] | inhibition of growth at 20 ppm [3]

CCN(Cc1ccc(-c2noc(C(F)(F)F)n2)cc1)C(=O)CC#N [Compound 1.510, 2-cyano-N-ethyl-N-[[4-[5-(trifluoromethyl)-1,2,4-oxadiazol-3-yl]phenyl]methyl]-acetamide]
≥ 80%: pest or weed control at 200 ppm (Phakopsora Pachyrhizi) | pest or weed control at 200 ppm [1] | pest or weed control at 200 ppm [2] | inhibition of growth at 20 ppm [3]

CCN(Cc1ccc(-c2noc(C(F)(F)F)n2)cc1)C(=O)C1CC1F (stereo not shown) [Compound 1.511, N-ethyl-2-fluoro-N-[[4-[5-(trifluoromethyl)-1,2,4-oxadiazol-3-yl]phenyl]methyl]-cyclopropane-carboxamide]
≥ 80%: pest or weed control at 200 ppm (Phakopsora Pachyrhizi) | pest or weed control at 200 ppm [1] | pest or weed control at 200 ppm [2] | inhibition of growth at 20 ppm [3]

CCN(Cc1ccc(-c2noc(C(F)(F)F)n2)cc1)C(=O)C(C)OC (stereo not shown) [Compound 1.512, N-ethyl-2-methoxy-N-[[4-[5-(trifluoromethyl)-1,2,4-oxadiazol-3-yl]phenyl]methyl]-propanamide]
≥ 80%: pest or weed control at 200 ppm (Phakopsora Pachyrhizi) | pest or weed control at 200 ppm [1] | pest or weed control at 200 ppm [2] | inhibition of growth at 20 ppm [3]

CCN(Cc1ccc(-c2noc(C(F)(F)F)n2)cc1)C(=O)C1OCCO1 [Compound 1.513, N-ethyl-N-[[4-[5-(trifluoromethyl)-1,2,4-oxadiazol-3-yl]phenyl]methyl]-1,3-dioxolane-2-carboxamide]
≥ 80%: pest or weed control at 200 ppm (Phakopsora Pachyrhizi) | pest or weed control at 200 ppm [1] | pest or weed control at 200 ppm [2] | inhibition of growth at 20 ppm [3]

CCN(Cc1ccc(-c2noc(C(F)(F)F)n2)cc1)C(=O)C1CC1 [Compound 1.514, N-ethyl-N-[[4-[5-(trifluoromethyl)-1,2,4-oxadiazol-3-yl]phenyl]methyl]-cyclopropane-carboxamide]
≥ 80%: pest or weed control at 200 ppm (Phakopsora Pachyrhizi) | pest or weed control at 200 ppm [1] | pest or weed control at 200 ppm [2] | inhibition of growth at 20 ppm [3]

CN(Cc1ccc(-c2noc(C(F)(F)F)n2)cc1)C(=O)C1CCCC1 [Compound 1.515, N-methyl-N-[[4-[5-(trifluoromethyl)-1,2,4-oxadiazol-3-yl]phenyl]methyl]-cyclopentane-carboxamide]
≥ 80%: pest or weed control at 200 ppm (Phakopsora Pachyrhizi) | pest or weed control at 200 ppm [1] | pest or weed control at 200 ppm [2] | inhibition of growth at 20 ppm [3]

COCCC(=O)N(C)Cc1ccc(-c2noc(C(F)(F)F)n2)cc1 [Compound 1.516, 3-methoxy-N-methyl-N-[[4-[5-(trifluoromethyl)-1,2,4-oxadiazol-3-yl]phenyl]methyl]-propanamide]
≥ 80%: pest or weed control at 200 ppm (Phakopsora Pachyrhizi) | pest or weed control at 200 ppm [1] | pest or weed control at 200 ppm [2] | inhibition of growth at 20 ppm [3]

CCC(=O)N(C)Cc1ccc(-c2noc(C(F)(F)F)n2)cc1 [Compound 1.517, N-methyl-N-[[4-[5-(trifluoromethyl)-1,2,4-oxadiazol-3-yl]phenyl]methyl]-propanamide]
≥ 80%: pest or weed control at 200 ppm (Phakopsora Pachyrhizi) | pest or weed control at 200 ppm [1] | pest or weed control at 200 ppm [2] | inhibition of growth at 20 ppm [3]

CN(Cc1ccc(-c2noc(C(F)(F)F)n2)cc1)C(=O)C1CCC1 [Compound 1.518, N-methyl-N-[[4-[5-(trifluoromethyl)-1,2,4-oxadiazol-3-yl]phenyl]methyl]-cyclobutane-carboxamide]
≥ 80%: pest or weed control at 200 ppm (Phakopsora Pachyrhizi) | pest or weed control at 200 ppm [1] | pest or weed control at 200 ppm [2] | inhibition of growth at 20 ppm [3]

COCC(=O)N(C)Cc1ccc(-c2noc(C(F)(F)F)n2)cc1 [Compound 1.519, 2-methoxy-N-methyl-N-[[4-[5-(trifluoromethyl)-1,2,4-oxadiazol-3-yl]phenyl]methyl]-acetamide]
≥ 80%: pest or weed control at 200 ppm (Phakopsora Pachyrhizi) | pest or weed control at 200 ppm [1] | pest or weed control at 200 ppm [2] | inhibition of growth at 20 ppm [3]

CC1CC1C(=O)N(C)Cc1ccc(-c2noc(C(F)(F)F)n2)cc1 (stereo not shown) [Compound 1.520, N,2-dimethyl-N-[[4-[5-(trifluoromethyl)-1,2,4-oxadiazol-3-yl]phenyl]methyl]-cyclopropane-carboxamide]
≥ 80%: pest or weed control at 200 ppm (Phakopsora Pachyrhizi) | pest or weed control at 200 ppm [1] | pest or weed control at 200 ppm [2] | inhibition of growth at 20 ppm [3]

CC(=O)NCC(=O)N(C)Cc1ccc(-c2noc(C(F)(F)F)n2)cc1 [Compound 1.521, 2-acetamido-N-methyl-N-[[4-[5-(trifluoromethyl)-1,2,4-oxadiazol-3-yl]phenyl]methyl]-acetamide]
≥ 80%: pest or weed control at 200 ppm (Phakopsora Pachyrhizi) | pest or weed control at 200 ppm [1] | pest or weed control at 200 ppm [2] | inhibition of growth at 20 ppm [3]

CN(Cc1ccc(-c2noc(C(F)(F)F)n2)cc1)C(=O)C1CC1(F)F (stereo not shown) [Compound 1.523, 2,2-difluoro-N-methyl-N-[[4-[5-(trifluoromethyl)-1,2,4-oxadiazol-3-yl]phenyl]methyl]-cyclopropane-carboxamide]
≥ 80%: pest or weed control at 200 ppm (Phakopsora Pachyrhizi) | pest or weed control at 200 ppm [1] | pest or weed control at 200 ppm [2] | inhibition of growth at 20 ppm [3]

CCCC(=O)N(C)Cc1ccc(-c2noc(C(F)(F)F)n2)cc1 [Compound 1.524, N-methyl-N-[[4-[5-(trifluoromethyl)-1,2,4-oxadiazol-3-yl]phenyl]methyl]-butanamide]
≥ 80%: pest or weed control at 200 ppm (Phakopsora Pachyrhizi) | pest or weed control at 200 ppm [1] | pest or weed control at 200 ppm [2] | inhibition of growth at 20 ppm [3]

CCC(C)C(=O)N(C)Cc1ccc(-c2noc(C(F)(F)F)n2)cc1 (stereo not shown) [Compound 1.525, N.2-dimethyl-N-[[4-[5-(trifluoromethyl)-1,2,4-oxadiazol-3-yl]phenyl]methyl]-butanamide]
≥ 80%: pest or weed control at 200 ppm (Phakopsora Pachyrhizi) | pest or weed control at 200 ppm [1] | pest or weed control at 200 ppm [2] | inhibition of growth at 20 ppm [3]

COCCCC(=O)N(C)Cc1ccc(-c2noc(C(F)(F)F)n2)cc1 [Compound 1.526, 4-methoxy-N-methyl-N-[[4-[5-(trifluoromethyl)-1,2,4-oxadiazol-3-yl]phenyl]methyl]-butanamide]
≥ 80%: pest or weed control at 200 ppm (Phakopsora Pachyrhizi) | pest or weed control at 200 ppm [1] | pest or weed control at 200 ppm [2] | inhibition of growth at 20 ppm [3]

CN(Cc1ccc(-c2noc(C(F)(F)F)n2)cc1)C(=O)C1(C)COC1 [Compound 1.527, N,3-dimethyl-N-[[4-[5-(trifluoromethyl)-1,2,4-oxadiazol-3-yl]phenyl]methyl]-oxetane-3-carboxamide]
≥ 80%: pest or weed control at 200 ppm (Phakopsora Pachyrhizi) | pest or weed control at 200 ppm [1] | pest or weed control at 200 ppm [2] | inhibition of growth at 20 ppm [3]

CN(Cc1ccc(-c2noc(C(F)(F)F)n2)cc1)C(=O)C1CCCO1 (stereo not shown) [Compound 1.528, N-methyl-N-[[4-[5-(trifluoromethyl)-1,2,4-oxadiazol-3-yl]phenyl]methyl]-tetrahydrofuran-2-carboxamide]
≥ 80%: pest or weed control at 200 ppm (Phakopsora Pachyrhizi) | pest or weed control at 200 ppm [1] | pest or weed control at 200 ppm [2] | inhibition of growth at 20 ppm [3]
